# Patent US5942502A, “Method of treating diseases resulting from calcium metabolism disorders” (priority 1998, dated 1999)
# Entries after “also recorded” stand apart in the source; their conditions may differ. Like-named read-outs stand apart in the source and are kept apart here.
# Assays:
# [1] = test system: Ovariectomized rats; assay: Ovariectomized rat model: serum Ca and P, femur dry weight, ash weight and breaking load; type: in vivo, Female Fisher rats; settings: for Serum Pi / Breaking load (femur) / Serum Ca / Ash weight (femur) / Dry weight (femur): three times a week for 23 weeks, Mean ± SD; for Serum Pi: OVX 2.6 ± 0.4; for Breaking load (femur): OVX 9.0 ± 0.9; for Serum Ca: OVX 9.7 ± 0.2; for Ash weight (femur): OVX 285 ± 19; for Dry weight (femur): OVX 431 ± 26
# From the text: Female Fisher rats, 9-10 months old, were ovariectomized and were fed a vitamin D-deficient diet containing 0.45% calcium and 0.3% phosphorus. The rats were given 15IU of vitamin D3 orally once a week throughout this experiment. Four weeks after the surgery, the rats were orally adminstered three times a week for 23 weeks with ST-630 (30, 100 or 300 pmole/kg) or 1α-hydroxyvitamin D3 (100 or 300 pmole/kg).
# [2] = Acute toxicity (LD50), single dose; type: in vivo, rat; settings: rat, in vivo; single (acute) dose, male rats, at 14 days
# From the text: (§1) LD50 data represent the dose administered resulting in the death of 50% of the test group.
# [3] = test system: male rats; assay: Acute toxicity (LD50), single dose; type: in vivo, rat; settings: rats, from LD50
# From the text: as §1
# [4] = Subjective and objective symptoms (incl. ESR) in the clinical studies of ST-630; type: in vivo, human
# From the text: 2) Questioning, auscultation, percussion
# 5. Subjective and objective symptoms
# [5] = test system: female beagle dogs; assay: Chronic dosing toxicity, three months oral; type: in vivo, dog (beagle)
# Experimental: With respect to chronic dosing, a group of six female beagle dogs were given 0.3 mg/kg of either ST-630 or 1α-hydroxyvitamin D3 orally each day for three months.
# [6] = Overall safety / tolerance between effectiveness and toxicity in humans; type: in vivo, human
# [7] = Repeated-dose clinical study of ST-630 (7 days, postprandial); type: in vivo, human; settings: 1.0 μg/day for 7 days
# Experimental: 4.1. Dosing schedule (postprandial administration)
# *^1 : Blood samples are collected only immediately before
# *^2 : Blood samples are collected only immediately before
# *^3 : Only cereatinie are determined immediately before and 12 hr
# after administration on day 1, immediately before and 12, 24, 48, 72, 96
# and 120 hr after the last administration, and at followup examination. On
# days 2-6, blood samples are collected only immediately before
# ST-630 was administered postprandially at a daily dose of 1.0 μg for 7 days.
# [8] = Single-dose clinical study of ST-630: urinary excretions of electrolytes; type: in vivo, human
# From the text: (3) Urinalysis: pH, occult blood, protein, glucose, bilirubin, urobilinogen, sediment and creatinine clearance (24-hour method)
# (2) Urinary excretion ST-630, Ca, P, Mg, Na, K, creatinine, c-AMP*^3 and hydroxyproline*^3
# [9] = Study of dietary effect on the absorption of ST-630 (crossover); type: in vivo, human; settings: 2.0 μg, postprandial (30 min after meal) compared with fasting (FIG. 13)
# Experimental: (§2) (1) Serum concentrations: ST-630, Ca, P, Mg and Al-P
# *: Administration at 30 min after meal.
# The dietary effect on the absorption of ST-630 was studied by the crossover method at the dose of 2.0 μg.
# [10] = Single-dose clinical study of ST-630: blood biochemistry / serum electrolytes; type: in vivo, human
# From the text: (2) Blood biochemistry: Total protein fraction, BUN, creatinine, total cholesterol, neutral fat, phospholipid, serum electrolytes (Na, K, Cl, Ca, P, Mg), Al-P, GOT, GPI, LDH, γ-GTP, CPK, blood glucose, HBs antigen/antibody*^1, serologic test for syphilis, activated partial thrombo-plastin time *^2 and prothrombin time *^2
# as §2
# [11] = test system: vitamin D responsive systems of vitamin D-deficient animals; settings: cited from earlier work; for activity relative to 1,25-(OH)2 D3: vitamin D responsive systems, vitamin D-deficient animals, times that of 1,25-(OH)2 D3
# [12] = compared with 1α-hydroxyvitamin D3
# [13] = dose response over the doses tested
# [14] = 0.0125 μg single dose, subject 1, last value, no date
# [15] = 2.0 μg single dose, subject 8, last value, no date
# [16] = single dose 0.25, 0.5, 1 and 2 μg/man (FIGS. 1-4)
# [17] = single doses 0.0125 μg to 2.0 μg
# [18] = vitamin D-like activity compared with 1,25-dihydroxycholecalciferol
structure (smiles),measurement,setting,value
"C=C1/C(=C\C=C2/CCC[C@]3(C)[C@@H]([C@H](C)CCCC(O)(C(F)(F)F)C(F)(F)F)CC[C@@H]23)C[C@@H](O)C[C@@H]1O [ST-630, 26,26,26,27,27,27-hexafluoro-1α,25-dihydroxycholecalciferol]",Serum Pi,[1]; 30 pmole/kg p.o.,3.6 ± 0.3 mg/100 ml
same,Breaking load (femur),[1]; 30 pmole/kg p.o.,9.7 ± 0.8 kg
same,Serum Ca,[1]; 30 pmole/kg p.o.,9.9 ± 0.4 mg/100 ml
same,Ash weight (femur),[1]; 30 pmole/kg p.o.,298 ± 22 mg
same,Dry weight (femur),[1]; 30 pmole/kg p.o.,449 ± 29 mg
same,Serum Pi,[1]; 100 pmole/kg p.o.,4.8 ± 0.2 mg/100 ml
same,Breaking load (femur),[1]; 100 pmole/kg p.o.,10.6 ± 0.5 kg
same,Serum Ca,[1]; 100 pmole/kg p.o.,10.6 ± 04 mg/100 ml
same,Ash weight (femur),[1]; 100 pmole/kg p.o.,319 ± 12 mg
same,Dry weight (femur),[1]; 100 pmole/kg p.o.,472 ± 21 mg
same,Serum Pi,[1]; 300 pmole/kg p.o.,5.3 ± 0.3 mg/100 ml
same,Breaking load (femur),[1]; 300 pmole/kg p.o.,12.4 ± 1.3 kg
same,Serum Ca,[1]; 300 pmole/kg p.o.,11.7 ± 0.7 mg/100 ml
same,Ash weight (femur),[1]; 300 pmole/kg p.o.,362 ± 32 mg
same,Dry weight (femur),[1]; 300 pmole/kg p.o.,538 ± 47 mg
same,prevention of the decrease of ash weight of the femur,[1]; [12],more potently
same,prevention of the decrease of breaking load of the femur,[1]; [12],more potently
same,prevention of the decrease of dry weight of the femur,[1]; [12],more potently
same,increase of mechanical strength of the bone,[1]; compared with 1α-hydroxyvitamin D3 at doses causing the same increase of serum calcium (FIG. 24),more potently
same,serum calcium level,[1]; [13],increased dose-dependently
same,serum phosphorus level,[1]; [13],increased dose-dependently
same,LD50 at 336 h,[2],0.043 mg/kg
same,toxicity relative to 1α-hydroxyvitamin D3,[3],about five times more toxic
same,ESR 1 h,"[4]; 0.0125 μg single dose, subject 1, date 2/4 (before: 3)",3
same,ESR 2 h,"[4]; 0.0125 μg single dose, subject 1, date 2/4 (before: 7)",8
same,ESR 1 h,"[4]; 0.0125 μg single dose, subject 1, date 2/8 (before: 3)",3
same,ESR 2 h,"[4]; 0.0125 μg single dose, subject 1, date 2/8 (before: 7)",8
same,ESR 1 h,"[4]; 0.0125 μg single dose, subject 1, follow-up examination 2/15 (before: 3)",13
same,ESR 2 h,"[4]; 0.0125 μg single dose, subject 1, follow-up examination 2/15 (before: 7)",34
same,ESR 1 h,[4]; [14],1
same,ESR 2 h,[4]; [14],8
same,ESR 1 h,"[4]; 2.0 μg single dose, subject 8, date 8/15 (before: 5)",4
same,ESR 2 h,"[4]; 2.0 μg single dose, subject 8, date 8/15 (before: 8)",8
same,ESR 1 h,"[4]; 2.0 μg single dose, subject 8, date 8/19 (before: 5)",4
same,ESR 2 h,"[4]; 2.0 μg single dose, subject 8, date 8/19 (before: 8)",11
same,ESR 1 h,"[4]; 2.0 μg single dose, subject 8, follow-up examination 8/27 (before: 5)",11
same,ESR 2 h,"[4]; 2.0 μg single dose, subject 8, follow-up examination 8/27 (before: 8)",27
same,ESR 1 h,[4]; [15],3
same,ESR 2 h,[4]; [15],8
same,Symptom,"[4]; repeated-dose study, 1.0 μg/day, 7 days, subjects 1-8",None and No symptom
same,"increase in erythrocyte sedimentation rate, number of cases",[4]; single dose 0.0125 μg (Step 1),one case
same,headache (symptom),[4]; single dose 0.25 μg (Step 5),Headache; also recorded: one case
same,"increase in erythrocyte sedimentation rate, number of cases",[4]; single dose 2.0 μg (Step 8),one case
same,Symptom,"[4]; study of dietary effect, 2.0 μg, subjects 1-10",None and No symptom
same,deaths,[5]; 0.3 mg/kg orally each day for three months,all six dogs
same,toxicity relative to 1α-hydroxyvitamin D3,[5]; conclusion for rats and dogs,much more toxic
same,calcium absorption,[6],promoted calcium absorption
same,hypercalcemia,[6],no hypercalcemia
same,safety,[6],no remarkable problem on safety
same,"""window"" or tolerance between effectiveness and toxicity in humans",[6]; up to 2.0 μg,relatively large
same,serum Ca concentration change,[7]; postprandial,tended to be elevated slightly but the change was within the normal range
same,urinary Ca/Cr ratio,[7]; postprandial,increased with the number of dosings
same,recovery of urinary Ca/Cr ratio,[7]; after completion of administration,recovered to the control value immediately after completion of administration
same,total urinary Ca excretion,[8]; single dose 2.0 μg,increases
same,urinary Ca/Cr ratio,[8]; single dose 2.0 μg,increases
same,urinary electrolytes,[8]; single doses below 2.0 μg (FIGS. 5-12),no significant increases
same,"AUC (area under the serum concentration curve), postprandial versus fasting",[9],slightly higher
same,toxicity at higher doses in humans,"[10]; 0.5 μg, 1 μg and 2 μg (FIGS. 2-4)",without toxicity problems
same,serum Ca change,[10]; [16],No major change
same,serum Mg change,[10]; [16],No major change
same,serum P change,[10]; [16],No major change
same,blood biochemistry change,[10]; [17],No change
same,serum electrolytes change,[10]; [17],No change
same,"activity relative to 1,25-(OH)2 D3","[11]; listed as 26,26,26,27,27,27-F6 -1,25-(OH)2 D3",at least ten times greater
same,"activity relative to 1,25-(OH)2 D3","[11]; listed as 26,26,26,27,27,27-hexafluoro derivative of 1α,25-dihydroxycholecalciferol",at least ten times greater
same,"activity relative to 1,25-(OH)2 D3","[11]; listed as 26,26,26,27,27,27-hexafluoro-1α,25-dihydroxyvitamin D3",about ten times more active
same,ability to mobilize calcium from bone,[11]; [18],substantially greater
same,ability to stimulate calcium transport in the intestine,[11]; [18],substantially greater
same,anti-rachitic activity according to the rat line test,[11]; [18],substantially greater
